Measured values: ChEMBL document CHEMBL1136305, “Structure-activity relationships within a series of caspase inhibitors: effect of leaving group modifications” (Bioorg Med Chem Lett, 2003)

What was measured:
[1] = molecular target: Caspase-8 (Homo sapiens) (UniProt Q14790); assay: Inhibitory activity against caspase-8 (Csp-8)
[2] = molecular target: T1, Caspase-1 (Mus musculus) (UniProt P29452); assay: Inhibitory activity against murine caspase-1
T1 sequence (whole entry): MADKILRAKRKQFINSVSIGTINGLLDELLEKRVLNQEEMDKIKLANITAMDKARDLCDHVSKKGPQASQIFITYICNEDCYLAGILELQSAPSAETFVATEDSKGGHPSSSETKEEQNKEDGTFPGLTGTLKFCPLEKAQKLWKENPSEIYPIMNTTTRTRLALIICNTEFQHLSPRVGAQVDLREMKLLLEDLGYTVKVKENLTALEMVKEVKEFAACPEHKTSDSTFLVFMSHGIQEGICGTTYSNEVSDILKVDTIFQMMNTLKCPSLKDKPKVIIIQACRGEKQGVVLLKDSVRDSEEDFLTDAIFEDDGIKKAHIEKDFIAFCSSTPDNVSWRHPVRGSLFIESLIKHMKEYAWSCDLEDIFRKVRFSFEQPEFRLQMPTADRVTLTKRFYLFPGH

[3] = test system: Jurkat; assay: Cellular assay in a Fas-induced model of apoptosis in Jurkat cells; assay type: functional, cell-based; conditions: Homo sapiens
[4] = molecular target: T2, Caspase-6 (Homo sapiens) (UniProt P55212); assay: Inhibitory activity against caspase-6 (Csp-6)
T2 sequence (whole entry): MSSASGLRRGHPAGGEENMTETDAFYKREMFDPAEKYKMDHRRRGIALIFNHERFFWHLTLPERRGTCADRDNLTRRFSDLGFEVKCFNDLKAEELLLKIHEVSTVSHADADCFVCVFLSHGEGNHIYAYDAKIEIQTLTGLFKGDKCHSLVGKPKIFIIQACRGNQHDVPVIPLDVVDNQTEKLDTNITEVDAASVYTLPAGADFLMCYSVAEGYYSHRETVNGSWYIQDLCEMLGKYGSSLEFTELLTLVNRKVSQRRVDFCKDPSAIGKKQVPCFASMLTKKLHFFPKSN

[5] = species on record: Homo sapiens; assay: Cellular assay in an inflammation model measuring IL1-beta secretion from isolated human monocytes induced with Staph A; assay type: functional
[6] = Cellular assay in a model of neuronal apoptosis involving cortical neurons exposed to concanavalin A; assay type: functional
[7] = molecular target: T3, Caspase-3 (Homo sapiens) (UniProt P42574); assay: Inhibitory activity against caspase-3 (Csp-3)
T3 sequence (whole entry): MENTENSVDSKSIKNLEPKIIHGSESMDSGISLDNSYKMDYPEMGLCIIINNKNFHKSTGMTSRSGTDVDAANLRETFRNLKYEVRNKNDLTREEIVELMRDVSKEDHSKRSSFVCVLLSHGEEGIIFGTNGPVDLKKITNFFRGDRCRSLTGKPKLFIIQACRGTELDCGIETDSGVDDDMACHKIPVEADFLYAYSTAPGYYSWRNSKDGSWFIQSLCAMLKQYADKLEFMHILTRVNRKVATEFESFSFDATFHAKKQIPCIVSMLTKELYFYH

Caspase-8 (Homo sapiens), sequence (Q14790 217-374 limits assumed): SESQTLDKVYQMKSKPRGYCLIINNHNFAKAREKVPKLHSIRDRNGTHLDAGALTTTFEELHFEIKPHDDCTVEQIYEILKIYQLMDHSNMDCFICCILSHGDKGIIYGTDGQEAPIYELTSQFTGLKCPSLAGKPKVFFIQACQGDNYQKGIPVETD
Caspase-8 (Homo sapiens), sequence (Q14790 385-479 limits assumed): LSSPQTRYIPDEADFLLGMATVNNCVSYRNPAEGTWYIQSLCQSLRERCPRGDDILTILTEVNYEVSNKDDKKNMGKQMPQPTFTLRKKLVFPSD

Row | SMILES | k3/Ki [1] [M⁻¹ s⁻¹] | k3/Ki [2] [M⁻¹ s⁻¹] | IC50 [3] [µM] | k3/Ki [4] [M⁻¹ s⁻¹] | IC50 [5] [µM] | IC50 [6] [µM] | k3/Ki [7] [M⁻¹ s⁻¹]
1 | CC(C)[C@H](NC(=O)COc1cccc2ccccc12)C(=O)N[C@@H](CC(=O)O)C(=O)COc1cc(F)ccc1F | 483 | 12100 | > 100 | 1330 | 19.7 | 4.85 | 49000
2 | CC(C)[C@H](NC(=O)COc1cccc2ccccc12)C(=O)N[C@@H](CC(=O)O)C(=O)COc1cccc(OC(F)(F)F)c1 | 359 | 1410 | > 100 | – | 15.4 | > 50 | 30600
3 | CC(C)[C@H](NC(=O)COc1cccc2ccccc12)C(=O)N[C@@H](CC(=O)O)C(=O)COc1c(F)c(F)c(-c2c(F)c(F)c(F)c(F)c2F)c(F)c1F | 10400 | 6680 | 20 | 27000 | 40 | > 50 | 52100
4 | CC(C)[C@H](NC(=O)COc1cccc2ccccc12)C(=O)N[C@@H](CC(=O)O)C(=O)COc1ccccc1F | 233 | 6020 | > 100 | – | 15.7 | 15 | 26800
5 | CC(C)[C@H](NC(=O)COc1cccc2ccccc12)C(=O)N[C@@H](CC(=O)O)C(=O)COc1ccc(Oc2ccccc2)cc1 | 668 | 1900 | 12.7 | 370 | 19 | > 50 | 9520
6 | CC(C)[C@H](NC(=O)COc1cccc2ccccc12)C(=O)N[C@@H](CC(=O)O)C(=O)COc1c(F)c(F)cc(F)c1F | 30200 | 77500 | 4.5 | 78900 | 6.25 | 2.17 | 268000
7 | CC(C)[C@H](NC(=O)COc1cccc2ccccc12)C(=O)N[C@@H](CC(=O)O)C(=O)COc1c(Cl)cccc1Cl | 2710 | 25300 | 3 | 87700 | 15.3 | 2.75 | 179000
8 | CC(C)[C@H](NC(=O)COc1cccc2ccccc12)C(=O)N[C@@H](CC(=O)O)C(=O)COP(=O)(c1ccccc1)c1ccccc1 | 59300 | 143000 | 18.4 | 39700 | 3.48 | – | 351000
9 | CC(C)[C@H](NC(=O)COc1cccc2ccccc12)C(=O)N[C@@H](CC(=O)O)C(=O)COc1cccc(F)c1F | 197 | 14800 | – | 1610 | – | 5.2 | 28800
10 | CC(C)[C@H](NC(=O)COc1cccc2ccccc12)C(=O)N[C@@H](CC(=O)O)C(=O)COc1cc(F)cc(F)c1 | 154 | 2170 | > 100 | 106 | 15.9 | 11.6 | 9240
11 | CC(C)[C@H](NC(=O)COc1cccc2ccccc12)C(=O)N[C@@H](CC(=O)O)C(=O)COc1ccc(F)c(F)c1F | 769 | 11900 | 35.8 | 253 | 20.6 | > 50 | 35800
12 | CC(C)[C@H](NC(=O)COc1cccc2ccccc12)C(=O)N[C@@H](CC(=O)O)C(=O)COc1cc(F)cc(F)c1F | 1470 | 14700 | 30 | 1510 | 11.2 | 3.75 | 60100
13 | CC(C)[C@H](NC(=O)COc1cccc2ccccc12)C(=O)N[C@@H](CC(=O)O)C(=O)COc1ccc(C(=O)c2ccccc2)cc1 | 21 | 1520 | > 100 | – | – | – | 17700
14 | CC(C)[C@H](NC(=O)COc1cccc2ccccc12)C(=O)N[C@@H](CC(=O)O)C(=O)COc1ccc2oc(=O)sc2c1 | 130 | 2240 | > 100 | 81 | 25.7 | – | 5890
15 | CC(C)[C@H](NC(=O)COc1cccc2ccccc12)C(=O)N[C@@H](CC(=O)O)C(=O)COc1ccc(Oc2ccc(C(F)(F)F)cc2)cc1 | 1120 | 1540 | 9.3 | 625 | 24.9 | > 50 | 6930
16 | CC(C)[C@H](NC(=O)COc1cccc2ccccc12)C(=O)N[C@@H](CC(=O)O)C(=O)COc1ccc(C(N)=O)cc1 | – | 3650 | > 100 | 744 | – | > 50 | 17700
17 | CC(C)[C@H](NC(=O)COc1cccc2ccccc12)C(=O)N[C@@H](CC(=O)O)C(=O)COc1ccc(OC(F)(F)F)cc1 | 2420 | 2360 | 29.1 | 776 | – | > 50 | 10500
18 | CC(C)[C@H](NC(=O)COc1cccc2ccccc12)C(=O)N[C@@H](CC(=O)O)C(=O)COc1c(F)ccc(F)c1F | 17000 | 47100 | 1.2 | 81700 | – | 2.43 | 188000
19 | CC(=O)Nc1cccc(OCC(=O)[C@H](CC(=O)O)NC(=O)[C@@H](NC(=O)COc2cccc3ccccc23)C(C)C)c1 | – | 612 | > 100 | – | – | > 50 | 4900
20 | CC(C)[C@H](NC(=O)COc1cccc2ccccc12)C(=O)N[C@@H](CC(=O)O)C(=O)COc1cc(C(F)(F)F)cc(C(F)(F)F)c1 | 68 | 783 | > 100 | 193 | – | > 50 | 5350
21 | CC(C)[C@H](NC(=O)COc1cccc2ccccc12)C(=O)N[C@@H](CC(=O)O)C(=O)COc1ccc(F)cc1F | 628 | 8400 | 33.2 | – | 17.6 | > 50 | 21700
22 | CC(C)[C@H](NC(=O)COc1cccc2ccccc12)C(=O)N[C@@H](CC(=O)O)C(=O)COc1cccc(C(F)(F)F)c1 | 150 | 2450 | > 100 | – | 16.6 | > 50 | 7980
23 | CC(C)[C@H](NC(=O)COc1cccc2ccccc12)C(=O)N[C@@H](CC(=O)O)C(=O)COc1ccc(F)cc1 | 699 | 9120 | > 100 | – | 14.3 | > 50 | 8560
24 | CC(C)[C@H](NC(=O)COc1cccc2ccccc12)C(=O)N[C@@H](CC(=O)O)C(=O)COc1c(F)c(F)c(F)c(F)c1F | 8040 | 14700 | 3.05 | 13600 | 8.89 | – | 56600
